Experiment: Human HepG2 cell viability assay in 384 well format
Type: toxicity, cell-based
Design: dose 125 nL, time 70.5 hour; cytotoxicity at 70.5 h: concentration not given beside the values
Conditions: HepG2 cells, read-out: Inhibition

SMILES	cytotoxicity at 70.5 h [%]
CCNC(=O)c1ccc2ccc(N(CC)CC)n2c1	-8.54
Cn1cc(-c2cnc3n2CCC32CCN(S(C)(=O)=O)CC2)cn1	-0.823
CCC(CC)NC(=O)c1ccc2c(c1)C(c1nc[nH]n1)CN2S(C)(=O)=O (configuration not stated)	-7.51
CCN(CC)[C@@H]1CN(S(=O)(=O)c2cn(C)cn2)[C@@H]2CCCO[C@H]12	26.4
COCC(=O)N1CCC2(CC1)CC(N1CCOCC1)c1ccc(C)cc12 (configuration not stated)	0.692
c1ccc(N2CCc3ncnc(C4CC4)c3CC2)nc1	-12.5
CS(=O)(=O)N1CC(c2nc[nH]n2)c2cc(C(=O)NC3CCCC3)ccc21 (configuration not stated)	-20.4
CCc1nc(-c2noc3ccc(C(=O)N(C)CCOC)cc23)co1	-12.2
COc1ccc(CN2CCO[C@H]3CN(C(C)=O)CC[C@H]3C2=O)cc1	19.5
CO[C@H]1CN(C(=O)c2ccc3c(c2)OCO3)[C@@H]2COC[C@H]12	0.574
COCC(=O)N1CCC2(CC1)CC(OC)c1ccc(F)cc12 (configuration not stated)	-0.706
CS(=O)(=O)N1CCN(CC2CC2)c2ncccc2C1	-9.41
CCOC1CC2(CCN(C(C)=O)CC2)c2cc(F)ccc21 (configuration not stated)	-3.98
CC(C)N1[C@H](CN2CCCC2)C[C@@H]2CN(Cc3cnn(C)c3)CC[C@@H]21	-10.1
O=C(NCC1CC1)C1CCC2(CN(C(=O)c3ccno3)C2)O1 (configuration not stated)	-13.9
O=C(c1ccno1)N1CC2(CCC(C(=O)N3CCCC3)O2)C1 (configuration not stated)	-14.7
N#CCC(=O)NCc1nnc2n1CCN(Cc1ccco1)C2	-13
O=C(c1ccco1)N1CC[C@@H]2O[C@@H](COCC3CCOCC3)CC[C@@H]21	11.4
CN(C)C(=O)CN1CCC2(CCCN(c3ncc(F)cn3)C2)C1=O (configuration not stated)	16.4
Cn1cc(CN2CCC3(CC2)CCN(Cc2ccccn2)CC3)cn1	12
COCCC(=O)N1CCC2(COCc3cnc(NCC4CC4)nc32)C1 (configuration not stated)	1.86
CCN1CC2(CC1=O)CN(C(=O)c1cccs1)CCN(C(=O)N(C)C)C2 (configuration not stated)	-1.77

SMILES	cytotoxicity at 70.5 h [%]
Cc1oncc1C(=O)N1CCC2(CCN(Cc3cccc(F)c3)C2=O)C1 (configuration not stated)	-2.01
c1coc(CN2CC[C@@H]3O[C@@H](COCc4ccncc4)CC[C@@H]32)c1	3.57
Cc1cnc(C(=O)N2C[C@H]3CN(Cc4cccs4)C[C@H]3C2)cn1	8.68
COc1ncnc2c1CCN(Cc1cccc(C)n1)CC2	5.99
Cc1nc(CN2C(=O)C[C@@H]3[C@@H]2CCN3S(C)(=O)=O)cs1	-4.41
COc1nn(C)c2c1CCCN(C(=O)c1ccc(C)c(F)c1)C2	-101
O=C1[C@H]2CN(c3ncccn3)C[C@H]2CN1CC1CC1	-124
COc1nn(C)c2c1CCCN(C(=O)COc1ccccc1)C2	-104
Cn1cc(C(=O)NCc2cn3c(n2)CN(Cc2ccncc2)CC3)cn1	-7.44
COc1nn(C)c2c1CCCN(C(=O)c1cccn1C)C2	-41.9
COc1nn(C)c2c1CCCN(C(=O)c1ccc[nH]1)C2	-99.5
CCCS(=O)(=O)N1CCC2(CC1)CC(Nc1ncccn1)CO2 (configuration not stated)	-99.6
CCC1=N[C@@]2(CC[C@@H]3CN(C(=O)Nc4ccccc4)C[C@@H]32)C(=O)N1C	-85.8
COCCC(=O)N1CCC2(CCN(Cc3ccc(OC)c(F)c3)C2)C1 (configuration not stated)	-93.9
COCC1c2c(cnn2C)CCN1Cc1ccc(C)o1 (configuration not stated)	-18.3
C[C@H]1C[C@@H]2CCN(C(=O)c3ccncc3)C[C@H]2O1	-2.95
O=C(C1CC=CC1)N1CCC2(CC1)CNCCO2	-5.99
COCC(=O)N1CCC2(CCc3ccc(F)cc32)CC1	-2.02
c1c(CN2CCCC2)nc2n1CCNC2	9.22
OCCOCc1nnn2c1CN(c1ncccn1)CCC2	8.18
CC(C)CCN1Cc2c(C(=O)N3CCCC3)nn(C)c2C1	15
CCc1cnc(N2C[C@@H](NC(=O)c3cscn3)[C@H]3COC[C@H]32)nc1	-11.1

SMILES	cytotoxicity at 70.5 h [%]
O=C(c1ccccc1)N1CCS(=O)(=O)[C@@H]2CCNCC[C@@H]21	3.07
CN1CCC(c2nnc3ccc(C(=O)N4CCCCC4)cn23)C1 (configuration not stated)	-9.66
Fc1cnc(N2CCCn3c(nnc3Cn3cccc3)C2)nc1	27.5
CC(C)CO[C@H]1CN(S(=O)(=O)c2cn(C)cn2)[C@@H]2CCCO[C@H]12	18
O=C(c1cccc(Cl)c1)N1CCCC2(CCCNC2)C1 (configuration not stated)	-1.15
CC(C)n1nc(CNc2ncccn2)c2c1CN(C1CCOCC1)CC2	-17.3
Cc1cccc(N2CCc3ncnc(C4CC4)c3CC2)n1	-10.3
O=S(=O)(NC[C@]12COC[C@H]1CN(c1ncc(F)cn1)C2)C1CC1	19.1
CCN1CCOCC12CCN(C(=O)c1ccsc1)CC2	-7.84
CCS(=O)(=O)N1CCCC2(CCCN2Cc2cccc(F)c2)C1 (configuration not stated)	-8.06
CC(=O)N1CC[C@H]2[C@H](C[C@@H](Cn3cncn3)N2c2nccs2)C1	-8.31
CCn1ncc2c1C(COCC1CC1)N(C(=O)c1ccncn1)CC2 (configuration not stated)	-11.3
CN1CCO[C@H]2CN(C(=O)c3ccncc3F)C[C@H]21	-3.39
Cn1ccnc1CN1CCc2ncnc(N3CCCC3)c2CC1	-3.33
COCCN1CCC12CCN(C(=O)c1ccsc1)CC2	-11.4
O=C(c1nc2c(o1)CN(CC1CC1)C2)N1CCCC1	-13.1
CO[C@H]1CN(Cc2ccc(C)o2)[C@@H]2CCCO[C@H]12	13.3
CCOCC1CN(S(=O)(=O)CC)Cc2cnn(CC3CC3)c21 (configuration not stated)	6.24
c1cncc(CN2Cc3nccn3CC(Cn3cncn3)C2)c1 (configuration not stated)	0.12
c1csc(CN2Cc3nccn3CC(Cn3cncn3)C2)c1 (configuration not stated)	2.43
CCc1ccc(CN2Cc3nccn3CC(Cn3cncn3)C2)o1 (configuration not stated)	2.9
CCOCC1CN(Cc2ccco2)Cc2nccn2C1 (configuration not stated)	3.52

SMILES	cytotoxicity at 70.5 h [%]
Cc1cccc(CN2C(=O)CO[C@@H]3CN(C4CCOCC4)C[C@H]32)c1	0.326
O=C(c1ccc(F)cc1)N1CCC2(CCN(Cc3ccccn3)C2=O)C1 (configuration not stated)	-5.2
Cc1ccc(CN2Cc3nccn3CC(Cn3cncn3)C2)s1 (configuration not stated)	-1.32
O=C(NC[C@H]1OC[C@@H]2CN(Cc3ccco3)CC[C@@H]21)c1cscn1	0.732
Cc1cccc(CN2CCc3ncnc(C4CC4)c3CC2)n1	5.72
Cc1nc(CN2C(=O)CC[C@@H]3[C@H]2CCN3C2CCOC2)cs1 (some centres not stated)	1.29
COc1ccc(CN2CCc3ncnc(C4CC4)c3CC2)cc1	1.6
Cn1ccc(C(=O)NC2CCC23CCN(CC2CCOCC2)CC3)c1 (configuration not stated)	3.91
CO[C@@H]1CO[C@@]2(CCCN(Cc3nc(C)cs3)C2)C1	-1.7
O=c1ccc2c(n1CC1CCOCC1)CCN(Cc1ccoc1)CC2	49.3
c1cnc(NC2COC3(CCN(Cc4cc[nH]n4)CC3)C2)nc1 (configuration not stated)	-99.2
COCCN1CCn2cc(CNC(=O)c3cnn(C)c3)nc2C1	-38
COCCC(=O)N1CCCC2(CCCN2Cc2ccccc2F)C1 (configuration not stated)	-107
Cc1nc(COC[C@@H]2CC[C@H]3[C@H](CCN3c3ccccn3)O2)cs1	-90.1
c1cnc(NC2COC3(CCN(Cc4cccs4)CC3)C2)nc1 (configuration not stated)	-97
CCCS(=O)(=O)N1CCC2(CN(c3ccccc3)C(=O)CN2C)C1 (configuration not stated)	-87.7
O=C1[C@H]2CN(c3ncccn3)C[C@H]2CN1CCN1CCCC1	-47.2
O=C(NCCCO)c1cc(-c2cc[nH]n2)n2ccccc12	-102
CN(C)C(=O)COC[C@@H]1CC[C@H]2[C@H](CCN2c2ncccn2)O1	-66.5
c1ccc(CN2CCc3c(CNc4nccs4)n[nH]c3C2)nc1	-16.9
Cc1oncc1C(=O)N1C[C@H](OCc2ccccn2)[C@H]2OCCC[C@H]21	-11.5
CN(C)C(=O)CC1CC2(CCN(Cc3ccoc3)CC2)c2ccccc21 (configuration not stated)	-2.19

SMILES	cytotoxicity at 70.5 h [%]
COCC(=O)N1C[C@@H](OCc2ccncc2)[C@@H]2OCCC[C@@H]21	52.2
CC(C)C(=O)N1CCN(Cc2cnn(C)c2)CC2(CC(=O)N(C)C2)C1 (configuration not stated)	-13.2
Fc1cnc(N2CCCn3c(CN4CCOCC4)nnc3C2)nc1	25.5
Cn1nc(CN2CCOCC2)c2c1CN(Cc1ccsc1)C2	-5.85
Cc1ccc(CN2C[C@@H](N(C)C)[C@H]3OCCC[C@H]32)o1	1.56
Cc1ccc(CN2CC[C@H]3[C@H]2CC(=O)N3c2cccnc2)o1	8.92
CCOCC1CN(CCN(C)C)Cc2cnn(CC3CCCC3)c21 (configuration not stated)	4.97
CCOCC1CN(C2CCCC2)Cc2cnn(CC3CCOCC3)c21 (configuration not stated)	2.06
O=c1ccc2c(n1Cc1ccncc1)CCN(Cc1ccoc1)CC2	1.47
CCN1CCn2cc(CNC(=O)c3cnn(C)c3)nc2C1	-110
c1cncc(OC[C@]23COC[C@H]2CN(Cc2ccsc2)C3)c1	-129
c1cncc(OC[C@]23COC[C@H]2CN(Cc2nccs2)C3)c1	-120
Cn1cc(C(=O)NCc2cn3c(n2)CN(CC2CCCC2)CC3)cn1	-112
CCN1CCC2(CC1)CC(NCc1cccs1)c1ccccc1O2 (configuration not stated)	-5.71
c1nc(CN2CCC3(CC2)COCCN3CC2CC2)c[nH]1	-18.8
Cn1ncc2c1C(COCC1CC1)N(Cc1ccoc1)CC2 (configuration not stated)	-19.6
Cc1cnc(N2C[C@H]3C[C@H](C(=O)N4CCN(C)CC4)N(C)[C@H]3C2)nc1	-9.1
Fc1cccc(O[C@@H]2C[C@H]3CN(Cc4ccncc4)CCN3C2)c1	-15.6
CC(C)N1[C@H](Cn2cccn2)C[C@@H]2CN(Cc3ccoc3)CC[C@@H]21	-13.4

From ChEMBL document CHEMBL3507680, “University of Dundee, Gates Library screen for HepG2 cell viability”
